Measured values taken from patent publication US11306092B2, “Amino indole compounds useful as TLR inhibitors” (BRISTOL-MYERS SQUIBB COMPANY, priority 2017, dated 2022).

How the values were obtained:
Type in all cases: cell-based
[1] = molecular target: T1, human TLR9 (Homo sapiens, UniProt Q9NR96); assay: TLR9 inhibition reporter assay (HEK-Blue SEAP reporter); details: HEK-Blue cells overexpressing human TLR9; ODN2006 5 nM; 22 hour incubation
T1 construct: host or cells: HEK-Blue cells
T1 sequence (Q9NR96 26-1032): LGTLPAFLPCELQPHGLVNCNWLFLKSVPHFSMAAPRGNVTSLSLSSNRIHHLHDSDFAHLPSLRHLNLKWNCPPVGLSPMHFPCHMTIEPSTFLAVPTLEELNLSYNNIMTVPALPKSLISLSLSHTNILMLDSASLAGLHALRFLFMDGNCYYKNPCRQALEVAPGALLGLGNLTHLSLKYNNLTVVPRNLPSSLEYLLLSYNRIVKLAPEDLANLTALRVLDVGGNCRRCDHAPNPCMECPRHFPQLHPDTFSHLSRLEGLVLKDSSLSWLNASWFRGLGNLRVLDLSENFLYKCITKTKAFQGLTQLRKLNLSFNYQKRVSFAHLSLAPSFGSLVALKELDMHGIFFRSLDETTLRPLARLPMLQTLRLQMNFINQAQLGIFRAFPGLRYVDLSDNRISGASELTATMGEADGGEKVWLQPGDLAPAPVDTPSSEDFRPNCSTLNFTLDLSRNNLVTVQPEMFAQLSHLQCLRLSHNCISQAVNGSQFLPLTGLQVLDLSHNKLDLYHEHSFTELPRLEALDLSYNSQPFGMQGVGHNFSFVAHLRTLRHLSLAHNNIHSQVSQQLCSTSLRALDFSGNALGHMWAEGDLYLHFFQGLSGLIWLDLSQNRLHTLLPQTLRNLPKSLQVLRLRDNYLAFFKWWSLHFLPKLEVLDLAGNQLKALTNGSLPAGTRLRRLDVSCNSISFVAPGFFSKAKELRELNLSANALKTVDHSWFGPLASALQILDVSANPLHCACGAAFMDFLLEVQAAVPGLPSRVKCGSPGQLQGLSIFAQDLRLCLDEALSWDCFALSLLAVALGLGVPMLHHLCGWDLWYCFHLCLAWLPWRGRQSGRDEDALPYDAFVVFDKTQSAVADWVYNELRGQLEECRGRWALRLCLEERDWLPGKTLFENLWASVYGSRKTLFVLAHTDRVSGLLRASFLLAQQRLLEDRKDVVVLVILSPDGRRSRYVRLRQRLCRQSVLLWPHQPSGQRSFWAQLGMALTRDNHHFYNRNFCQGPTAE
Outline: (§1)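 Agonists used: gardiquimod 7.5 μM (TLR7), R848 15.9 μM (TLR8), ODN2006 5 nM (TLR9), added after 30 min room-temperature compound pre-treatment (0.05 nM–50 μM) of receptor-overexpressing HEK-Blue cells. SEAP reporter (NF-κB/AP-1 driven) read after 22 h at 37 °C; inhibition scaled between agonist+DMSO and reference-inhibitor wells.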

[2] = molecular target: T2, human TLR8 (Homo sapiens, UniProt Q9NR97); assay: TLR8 inhibition reporter assay (HEK-Blue SEAP reporter); details: HEK-Blue cells overexpressing human TLR8; R848 15.9 μM; 22 hour incubation
T2 construct: host or cells: HEK-Blue cells
T2 sequence (Q9NR97 27-1041): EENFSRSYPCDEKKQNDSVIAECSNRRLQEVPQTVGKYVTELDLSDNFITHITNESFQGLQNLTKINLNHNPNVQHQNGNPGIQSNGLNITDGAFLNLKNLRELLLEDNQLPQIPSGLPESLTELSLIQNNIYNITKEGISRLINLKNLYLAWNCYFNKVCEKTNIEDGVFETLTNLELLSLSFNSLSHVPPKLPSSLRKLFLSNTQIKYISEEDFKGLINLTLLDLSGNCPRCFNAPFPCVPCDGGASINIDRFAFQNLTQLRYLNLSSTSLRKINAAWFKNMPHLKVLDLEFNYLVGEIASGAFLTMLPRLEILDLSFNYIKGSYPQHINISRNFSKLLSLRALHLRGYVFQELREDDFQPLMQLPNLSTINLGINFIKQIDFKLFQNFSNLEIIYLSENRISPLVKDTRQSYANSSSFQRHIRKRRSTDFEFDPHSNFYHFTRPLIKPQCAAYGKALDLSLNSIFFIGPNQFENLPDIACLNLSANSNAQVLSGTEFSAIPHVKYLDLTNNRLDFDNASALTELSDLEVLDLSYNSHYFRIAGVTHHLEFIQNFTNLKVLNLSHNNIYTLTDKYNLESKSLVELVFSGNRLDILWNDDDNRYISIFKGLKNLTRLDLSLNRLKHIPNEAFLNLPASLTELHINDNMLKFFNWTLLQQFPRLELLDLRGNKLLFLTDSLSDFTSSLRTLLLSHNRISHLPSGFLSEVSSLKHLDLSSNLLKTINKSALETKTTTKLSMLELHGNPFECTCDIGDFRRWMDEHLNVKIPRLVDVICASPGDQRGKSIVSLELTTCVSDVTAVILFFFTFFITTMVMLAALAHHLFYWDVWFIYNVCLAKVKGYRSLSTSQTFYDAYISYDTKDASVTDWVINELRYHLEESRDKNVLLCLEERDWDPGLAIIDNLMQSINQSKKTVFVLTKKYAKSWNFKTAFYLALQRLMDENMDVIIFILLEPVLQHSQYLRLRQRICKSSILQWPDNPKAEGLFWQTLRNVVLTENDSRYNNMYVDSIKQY
Description: TLR7/8/9 Inhibition Reporter Assays
HEK-Blue™-cells (Invivogen) overexpressing human TLR7, TLR8 or TLR9 receptors were used for screening inhibitors of these receptors using an inducible SEAP (secreted embryonic alkaline phosphatase) reporter gene under the control of the IFN-β minimal promoter fused to five NF-κB and AP-1-binding sites. Briefly, cells are seeded into Greiner 384 well plates (15000 cells per well for TLR7, 20,000 for TLR8 and 25,000 for TLR9) and then treated with test compounds in DMSO to yield a final dose response concentration range of 0.05 nM-50 μM. After a 30 minute compound pre-treatment at room temperature, the cells are then stimulated with a TLR7 ligand (gardiquimod at a final concentration of 7.5 μM), TLR8 ligand (R848 at a final concentration of 15.9 μM) or TLR9 ligand (ODN2006 at a final concentration of 5 nM) to activate NF-κB and AP-1 which induce the production of SEAP. After a 22 hour incubation at 37° C., 5% CO2, SEAP levels are determined with the addition of HEK-Blue™ Detection reagent (Invivogen), a cell culture medium that allows for detection of SEAP, according to manufacturer's specifications. The percent inhibition is determined as the % reduction in the HEK-Blue signal present in wells treated with agonist plus DMSO alone compared to wells treated with a known inhibitor.

[3] = molecular target: T3, human TLR7 (Homo sapiens, UniProt Q9NYK1); assay: TLR7 inhibition reporter assay (HEK-Blue SEAP reporter); details: HEK-Blue cells overexpressing human TLR7; gardiquimod 7.5 μM; 22 hour incubation
T3 construct: host or cells: HEK-Blue cells
T3 sequence (Q9NYK1 27-1049): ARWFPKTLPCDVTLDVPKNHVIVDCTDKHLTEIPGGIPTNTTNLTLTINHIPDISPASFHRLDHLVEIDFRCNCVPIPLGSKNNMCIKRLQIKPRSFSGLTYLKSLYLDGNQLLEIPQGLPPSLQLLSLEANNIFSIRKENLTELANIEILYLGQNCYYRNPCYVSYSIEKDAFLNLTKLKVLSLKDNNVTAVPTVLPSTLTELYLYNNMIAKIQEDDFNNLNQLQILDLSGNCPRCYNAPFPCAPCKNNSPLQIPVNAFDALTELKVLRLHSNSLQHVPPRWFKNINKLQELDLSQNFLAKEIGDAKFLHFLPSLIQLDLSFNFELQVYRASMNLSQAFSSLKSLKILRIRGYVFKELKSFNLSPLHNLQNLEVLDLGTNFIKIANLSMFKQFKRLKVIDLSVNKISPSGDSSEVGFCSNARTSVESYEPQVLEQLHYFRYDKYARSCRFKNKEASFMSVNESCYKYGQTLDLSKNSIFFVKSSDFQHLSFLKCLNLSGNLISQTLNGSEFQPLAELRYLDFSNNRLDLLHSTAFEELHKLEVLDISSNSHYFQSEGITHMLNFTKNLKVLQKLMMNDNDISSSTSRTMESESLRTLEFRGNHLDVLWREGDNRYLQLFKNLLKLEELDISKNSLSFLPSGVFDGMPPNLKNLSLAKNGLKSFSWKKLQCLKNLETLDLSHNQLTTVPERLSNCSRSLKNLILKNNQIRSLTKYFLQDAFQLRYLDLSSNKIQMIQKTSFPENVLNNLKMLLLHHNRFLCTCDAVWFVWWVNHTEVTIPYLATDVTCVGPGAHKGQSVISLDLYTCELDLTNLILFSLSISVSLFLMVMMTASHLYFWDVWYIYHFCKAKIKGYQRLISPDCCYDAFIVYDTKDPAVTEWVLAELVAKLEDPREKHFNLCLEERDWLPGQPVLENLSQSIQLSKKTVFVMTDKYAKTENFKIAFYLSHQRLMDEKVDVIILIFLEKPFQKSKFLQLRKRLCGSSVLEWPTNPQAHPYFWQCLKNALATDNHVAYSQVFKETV
Outline: as §1

| SMILES | IC50 [1] | IC50 [2] | IC50 [3] |
| --- | --- | --- | --- |
| COc1ccc(-c2[nH]c3ccc(NC(=O)[C@@H]4CCCC[C@@H]4N)cc3c2C(C)C)cc1OC [Example 21, (1R,2S)-2-amino-N-(2-(3,4-dimethoxyphenyl)-3-isopropyl-1H-indol-5-yl)cyclohexane-1-carboxamide] | 1390 nM | 75 nM | 128 nM |
| COc1ccc(-c2[nH]c3ccc(NC(=O)[C@H](N)CCC(N)=O)cc3c2C(C)C)cc1OC [Example 22, (R)-2-amino-N1-(2-(3,4-dimethoxyphenyl)-3-isopropyl-1H-indol-5-yl)pentanediamide] | 19300 nM | 213 nM | 670 nM |
| COc1ccc(-c2[nH]c3ccc(NC(=O)[C@@H](N)CCCCN)cc3c2C(C)C)cc1OC [Example 23, (S)-2,6-diamino-N-(2-(3,4-dimethoxyphenyl)-3-isopropyl-1H-indol-5-yl)hexanamide] | > 50000 nM | 433 nM | 969 nM |
| COc1ccc(-c2[nH]c3ccc(NC(=O)[C@@H](N)CCC(=O)O)cc3c2C(C)C)cc1OC [Example 24, (S)-4-amino-5-((2-(3,4-dimethoxyphenyl)-3-isopropyl-1H-indol-5-yl)amino)-5-oxopentanoic acid] | > 50000 nM | 216 nM | 1080 nM |
| COc1ccc(-c2[nH]c3ccc(NC(=O)[C@@H](N)c4ccccc4)cc3c2C(C)C)cc1OC [Example 25, (S)-2-amino-N-(2-(3,4-dimethoxyphenyl)-3-isopropyl-1H-indol-5-yl)-2-phenylacetamide] | > 50000 nM | 101 nM | 621 nM |
| COc1ccc(-c2[nH]c3ccc(NC(=O)[C@@H](N)C4CCCCC4)cc3c2C(C)C)cc1OC [Example 26, (S)-2-amino-2-cyclohexyl-N-(2-(3,4-dimethoxyphenyl)-3-isopropyl-1H-indol-5-yl)acetamide] | 11300 nM | 194 nM | 1180 nM |

Results, then the compound that gave them:

| IC50 [1] | IC50 [2] | IC50 [3] | SMILES |
| --- | --- | --- | --- |
| > 50000 nM | 14 nM | 180 nM | CC(C)c1c(-c2ccnc3[nH]ncc23)[nH]c2ccc(N3CCNC3=O)cc12 [Example 27, 1-(3-isopropyl-2-(1H-pyrazolo[3,4-b]pyridin-4-yl)-1H-indol-5-yl)imidazolidin-2-one] |
| 3750 nM | 27 nM | 760 nM | COc1ccc(-c2[nH]c3ccc(N4CC(N5CCCNCC5)C4)cc3c2C(C)C)cc1OC [Example 29, 5-(3-(1,4-diazepan-1-yl)azetidin-1-yl)-2-(3,4-dimethoxyphenyl)-3-isopropyl-1H-indole] |
| 608 nM | 261 nM | 129 nM | COc1ccc(-c2[nH]c3ccc(NC4CCC(N(C)CCN(C)C)CC4)cc3c2C(C)C)cc1OC (stereo not drawn) [Example 35, N1-(2-(3,4-dimethoxyphenyl)-3-isopropyl-1H-indol-5-yl)-N4-(2-(dimethylamino)ethyl)-N4-methylcyclohexane-1,4-diamine] |
| 624 nM | 276 nM | 222 nM | COc1ccc(-c2[nH]c3ccc(NC4CCC(NCCN5CCOCC5)CC4)cc3c2C(C)C)cc1OC (stereo not drawn) [Example 47, N1-(2-(3,4-dimethoxyphenyl)-3-isopropyl-1H-indol-5-yl)-N4-(2-morpholinoethyl)cyclohexane-1,4-diamine] |
| 218 nM | 106 nM | 196 nM | COc1ccc(-c2[nH]c3ccc(NC4CCC(N5CCN(c6ccncc6)CC5)CC4)cc3c2C(C)C)cc1OC (stereo not drawn) [Example 59, 2-(3,4-dimethoxyphenyl)-3-isopropyl-N-(4-(4-(pyridin-4-yl)piperazin-1-yl)cyclohexyl)-1H-indol-5-amine] |
| 253 nM | 112 nM | 153 nM | COc1ccc(-c2[nH]c3ccc(NC4CCC(N5CCN(c6ccncc6)CC5)CC4)cc3c2C(C)C)cc1OC (stereo not drawn) [Example 60, 2-(3,4-dimethoxyphenyl)-3-isopropyl-N-(4-(4-(pyridin-4-yl)piperazin-1-yl)cyclohexyl)-1H-indol-5-amine] |
